The source of these data is PMC8880564, “Design, Synthesis, and Biological Evaluation of a Novel VEGFR-2 Inhibitor Based on a 1,2,5-Oxadiazole-2-Oxide Scaffold with MAPK Signaling Pathway Inhibition” (Pharmaceuticals, 2022).

The subject of series [1] is normal human skin fibroblast cells (HSF). Kind of series: Selectivity towards cancer cells, normal cells by MTT. The format is cell-based. The conditions noted are these: at a concentration as high as 50 µM, 48 h. The procedure:
Furthermore, the selectivity index (SI) of compound 12b towards the various cancer cell lines was evaluated by detecting the required concentration to kill 50% of normal human skin fibroblast cells (HSF).
According to the procedures of Bézivin et al. (with minor modifications), the selectivity of compound 12b against cancer cell lines was evaluated by seeding human skin fibroblast cells (HSF) at 5 × 10^4 cells/mL in a 96-well plate and incubating them overnight at 37 °C and 5% CO2. On the second day, serial dilution of the compound 12b was added. After 48 h of incubation, the viability of HSF cells was determined by MTT assay as mentioned above and the selectivity index (SI) was calculated according to Equation (1):
Equation (1) Calculation of selectivity index. (1) SI=IC50 normal cells/IC50 cancer cell

The test system of the next series is MDA-MB-231. Nature of the series: MTT cell viability assay. The format is cell-based. As to conditions: Homo sapiens, Breast, 48 h, ± SD of triplicates. The procedure:
(§1) In addition, the morphological changes in 12b-treated cancer cell lines at concentrations of 6.25 and 12.50 µM are shown in Figure 6.
(§2) According to the procedures of Skehan et al. (with minor modifications), the cancer or normal cells were seeded in a 96-well plate (100 µL/well). After overnight incubation at 37 °C and 5% CO2, the cells were incubated with 50 µM of each tested compound or DMSO (0.5% v/v). After 48 h of incubation, MTT (3-(4,5-dimethylthiazoyl)-2,5-diphenyl-tetrazolium bromide) 5 mg/mL Phosphate-Buffered Saline (PBS) was added, and the plate was incubated for 4 h. After that, acidified sodium dodecyl sulfate (SDS) solution (10% SDS containing 0.01N HCl in 1× PBS) was used to solubilize formazan crystals. The absorbance was measured after 14 h of incubation at λ570–630 nm by a Biotek plate reader (Gen5™).

The next series relates to HT-29. Nature of the series: MTT cell viability assay. As to conditions: Homo sapiens, Colon, 48 h, ± SD of triplicates. The format is cell-based. The procedure: as §1, §2
In the next series the test system is MCF-7. Kind of series: MTT cell viability assay. The format is cell-based. As to conditions: Homo sapiens, MCF7, Breast, 48 h, ± SD of triplicates. The procedure: as §1, §2
A further series relates to HepG2. Kind of series: MTT cell viability assay. The format is cell-based. As to conditions: Homo sapiens, Liver, 48 h, ± SD of triplicates. The procedure: as §1, §2
Another series has as its system SKOV-3. Nature of the series: MTT cell viability assay. The conditions noted are these: Homo sapiens, SK-OV-3, Ovarian, 48 h, ± SD of triplicates. The format is cell-based. The procedure:
as §1, §2

Series [2] has as its system HepG2 cells. Nature of the series: Apoptosis analysis, Annexin-V/PI flow cytometry. The format is cell-based, human. The conditions noted are these: HepG2, 5.5 or 11 µM, 24 h. The procedure:
(§3) The mechanism of action of 12b was investigated by evaluating its effectiveness in modulating the cell cycle and induction of apoptosis.
Briefly, HepG2 cells (10^6 cells/mL) were treated either with 12b (5.5 or 11 µM) or with DMSO for 24 h, and then were collected after trypsinization and washed twice with 1× PBS. The induction of apoptosis was analyzed by staining cells with PE-Annexin-V [85] in the presence of PI and analyzed using the BD FACS Calibur Flow cytometer.

Series [3] deals with HepG2 cells. Nature of the series: Cell-cycle analysis by flow cytometry (PI). As to conditions: HepG2, 48 h; 5.6 in DMSO-treated cells. The format is cell-based, human. The procedure: as §3
According to Gray et al., HepG2 cells were seeded in a 6-well plate (2 mL/well) and incubated at 37 °C and 5% CO2 for 12 h. Cell synchronization at the G1 phase was performed by incubating the cells with serum-free medium for 12 h, then cells were treated with 5.5 or 11 μM of 12b. After 48 h of incubation, cells were washed twice with ice-cold 1× PBS and subjected to trypsinization. The detached cells were centrifuged at 500× g for 5 min at 4 °C. Then, the cell pellet was resuspended in ice-cold 1× PBS and fixed with absolute ethanol. After 2 h of incubation at −20 °C, the fixed cells were washed with ice-cold 1× PBS. The cell pellet was resuspended in propidium (PI)/RNase (BD Biosciences, BDB550825, Franklin Lakes, NJ, USA) and incubated for 30 min at room temperature (RT) in the dark, then the DNA content in each phase was measured by flow cytometry using BD FACS Calibur.

For a further series, the system named is JNK. Kind of series: ELISA assay in HepG-2 cells. The format is cell-based, human. The conditions noted are these: HepG-2, 11 µM. The procedure:
(§4) The mitogen-activated protein kinase (MAPK) pathway is considered to be a key player in the gene expression of survival, proliferative, and anti-apoptotic proteins. Aberrant dysregulation in the MAPK pathway activity has been linked to the overall poor prognosis in various cancers. […] Additionally, compound 12b was further tested against p38, MKK3, and JNK using ELISA assay protocols at a concentration of 11 µM. […] The overexpression of JNK might have contributed to the NO released from 12b and reactive oxygen species (ROS). In summary, the novel anticancer lead compound 12b is worthy of further investigation and activity improvement.
(§5) The p38, MKK3, and JNK assays were performed according to the manufacturer’s ELISA assay protocols. Briefly, a 96-well plate was seeded with a cell density of 10,000–40,000 cells/well. Then, 50 µL of compound 12b or control (DMSO) was added to appropriate wells in triplicate. Following this, 50 µL of the antibody cocktail (in case of p38; Cat. No. ab221012, Abcam (Waltham, MA, USA) and MKK3; Cat. No. PEL-MKK3-S189-T, RayBiotech, Peachtree Corners, GA, USA) was added to each well. The plate was then sealed and incubated for 1–2.5 h at room temperature with gentle shaking. Each well was washed with 1X Wash Buffer PT (4 × 350 µL), and then the plate was inverted and tapped gently against clean paper towels to remove excess liquid. In case of JNK (Cat. No. ab176662, Abcam, Waltham, MA, USA), this washing step was applied before and after adding 1X rabbit […] antibody, then 100 µL of HRP-conjugated anti-rabbit IgG solution was added and the plate was incubated for 1 h at room temperature with gentle shaking followed by washing (4 × 350 µL). After that, 100 µL of TMB Substrate was added to each well and incubated for 15–30 min in the dark with gentle shaking. Finally, 100 µL of Stop Solution was added to each well and the plate was shaken for 1 min to mix well. The OD was recorded at 450 nm.

Another series deals with p38. Kind of series: ELISA assay in HepG-2 cells. The format is cell-based, human. As to conditions: HepG-2, 11 µM. The procedure:
as §4, §5

The subject of a further series is MKK3. Nature of the series: ELISA assay in HepG-2 cells. The conditions noted are these: HepG-2, 11 µM. The format is cell-based, human. The procedure: as §4, §5

On to `[O-][n+]1onc(-c2ccccc2)c1CNc1ccc(Nc2nc(C(F)(F)F)nc3c2cnn3-c2ccc(Br)cc2)cc1` [12b, 3-(((4-((1-(4-bromophenyl)-6-(trifluoromethyl)-1H-pyrazolo[3,4-d]pyrimidin-4-yl)amino)phenyl)amino)methyl)-4-phenyl-1,2,5-oxadiazole 2-oxide], for which the “morphological changes in HSF cells” value in series [1] is “did not cause any morphological changes”. Moreover, the IC50 in the series on MDA-MB-231 came to 13 ± 0.2 µM; in the series with HT-29, 15 ± 0.24 µM; with MCF-7 it was 22.3 ± 0.3 µM; with HepG2, 11.5 ± 0.5 µM; with SKOV-3 it was 18.6 ± 0.2 µM. The induction of apoptosis result in the series on HepG2 cells [2] was “induction of apoptotic pathways”. In addition, in the series with HepG2 cells [3], the “cell-cycle arrest at subG1” value was determined as 24. The “relative expression of JNK” value in the series on JNK is reported as “overexpressed”. The “relative expression of p38” value with p38 is reported as “low expression”. In addition, the “relative expression of MKK3” value with MKK3 was “low expression”.
